Values quoted from earlier work in patent US8034921B2, “IRNA agents targeting CCR5 expressing cells and uses thereof” (Alnylam Pharmaceuticals, Inc., priority 2006, dated 2011).
Where two headings read alike, the source gives them in different places.

Columns and labels:
CCR5 [1] = molecular target: T1, CCR5 (Homo sapiens, UniProt P51681); parameters: expressed in transfected cells; host or cells: CHO cells; conditions: CCR5-expressing CHO cells; read-out: IC50, inhibition of [125I]RANTES binding
cyano CCR5 = cyano CCR5 (Macaca fascicularis, UniProt P61814); conditions: cyano CCR5, transfected CHO cell membranes; read-out: IC50, CCR5 binding against [125I]MI-1α
CCR5 [2] = molecular target: T1, CCR5; parameters: expressed in transfected cells; host or cells: CHO cells; conditions: membranes from CHO cells stably expressing recombinant human CCR5; read-out: IC50, binding of [125I]RANTES
CCR5 [3] = molecular target: T1, CCR5; parameters: expressed in transfected cells; host or cells: CHO cells; conditions: CHO cells expressing recombinant human CCR5
[4] = in vivo
[5] = healthy volunteers
HIV-1 gp120/CCR5 = HIV-1 gp120/CCR5 (Homo sapiens, UniProt P51681); conditions: read-out: IC50, HIV-1 gp120/CCR5 binding
[6] = rodents
CCR5 [7] = molecular target: T1, CCR5; conditions: read-out: IC50, inhibition of [125I]MIP-1α binding

T1 sequence (P51681 whole entry): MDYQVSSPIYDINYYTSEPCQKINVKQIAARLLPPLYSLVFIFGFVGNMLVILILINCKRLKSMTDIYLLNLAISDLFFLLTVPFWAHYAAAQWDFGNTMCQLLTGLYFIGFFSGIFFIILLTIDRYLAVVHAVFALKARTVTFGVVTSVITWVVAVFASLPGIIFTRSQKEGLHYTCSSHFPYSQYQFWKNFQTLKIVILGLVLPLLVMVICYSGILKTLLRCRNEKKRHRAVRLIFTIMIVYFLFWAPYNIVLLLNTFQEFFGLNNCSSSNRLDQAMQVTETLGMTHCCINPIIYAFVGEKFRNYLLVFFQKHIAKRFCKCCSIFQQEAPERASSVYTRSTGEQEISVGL
Sequence of HIV-1 gp120/CCR5 (P51681 whole entry): as above

## CCCCOCCOc1ccc(-c2ccc3c(c2)C=C(C(=O)Nc2ccc(CN(C)C4CCOCC4)cc2)CCS3(=O)=O)cc1 [Compound 17a]
CCR5 [1]
  IC50: 27 nM

## Cc1cccc(C)c1C(=O)N1CCC(C)(N2CCC(N(Cc3ccccc3)c3ccccc3)CC2)CC1 [Compound 19]
Cyano CCR5
  IC50: 0.7 nM

## CS(=O)(=O)N1CCC(C(=O)N(CCCN2CCC(Cc3ccc(S(=O)(=O)N4CCOCC4)cc3)CC2)c2ccc(Cl)c(Cl)c2)CC1 [Compound 9d]
CCR5 [1]
  IC50: 1.3 nM

## CCCCOCCOc1ccc(-c2ccc3c(c2)C=C(C(=O)Nc2ccc(CN(C)C4CCOCC4)cc2)CCN3CC(C)C)cc1 [Compound 17b]
CCR5 [1]
  IC50: 3.6 nM

## CS(=O)(=O)N1CCC(C(=O)N(CCCN2CCC(Cc3ccc(S(N)(=O)=O)cc3)CC2)c2ccc(Cl)c(Cl)c2)CC1 [Compound 9a]
CCR5 [1]
  IC50: 3.4 nM

## CCN(C(=O)Cc1ccc(S(=O)(=O)N(C)C)cc1)C1CCN(CCC(c2ccccc2)c2ccccc2)CC1 [Compound 5b]
CCR5 [2]
  IC50: < 10 nM

## CCN(C(=O)Nc1ccc(S(C)(=O)=O)cc1)C1CCN(CCC(c2ccccc2)c2ccccc2)CC1 [Compound 7]
CCR5 [2]
  IC50: 49 nM

## O=C(Nc1ccc(Cl)cc1)N(CCCN1CCC(Cc2ccc(S(=O)(=O)N3CCOCC3)cc2)CC1)c1ccccc1 [Compound 15]
CCR5 [1]
  IC50: 1 nM

## CCN(C(=O)Cc1ccc(S(C)(=O)=O)cc1)C1CCN(C(C)CC(NC(=O)OC2CCOCC2)c2ccccc2)CC1 (stereo not shown) [Compound 3]
CCR5 [3]
  IC50 for inhibition of CCL3 and CCL5 binding: sub-nanomolar range

## COC[C@@H](c1ccc(C(F)(F)F)cc1)N1CCN(C2(C)CCN(C(=O)c3c(C)ncnc3C)CC2)C[C@@H]1C [Compound 1]
[4]
  bioavailability: 100%
HIV-infected patients; 48 HIV-infected patients, phase I
  viral load: dose-dependent reduction in viral load
HIV-infected patients; human, in vivo
  cardiovascular side effects: no cardiovascular side effects

## CNS(=O)(=O)c1ccc(CC2CCN(CCCN(C(=O)C3CCN(S(C)(=O)=O)CC3)c3ccc(Cl)c(Cl)c3)CC2)cc1 [Compound 9b]
CCR5 [1]
  IC50: 1.5 nM

## CN(C)S(=O)(=O)c1ccc(CC2CCN(CCCN(C(=O)C3CCN(S(C)(=O)=O)CC3)c3ccc(Cl)c(Cl)c3)CC2)cc1 [Compound 9c]
CCR5 [1]
  IC50: 1.2 nM

## CCCCN1C(=O)C(CC2CCCCC2)NC(=O)C12CCN(Cc1ccc3c(c1)OCCO3)CC2 (stereo not shown) [Compound 13]
[5]
  QTc prolongation: some incidents of QTc prolongation
  serious adverse events: No serious adverse events
[5]; multiple dosing twice a day
  tolerated dose: 800 mg
[5]; single dose
  tolerated dose: 1200 mg
HIV-1 gp120/CCR5
  IC50: 1 nM
R5 HIV-1 isolates
  activity against a wide range of R5 HIV-1 isolates: potent activity
[6]
  oral bioavailability: favorable

## C=CCN(C(=O)OCc1ccc([N+](=O)[O-])cc1)C1CCN(CCC(C)(CN(C)S(=O)(=O)c2ccccc2)c2ccccc2)CC1 (stereo not shown) [Compound 21]
CCR5 [7]
  IC50: 4.4 nM
